According to patent US7524853B2 (Solvay Pharmaceuticals B.V., priority 2003, dated 2009):

Columns and labels:
Type in all cases: cell-based
[1] = target: T1, 17β-hydroxysteroid dehydrogenase type 2 (17β-HSD type 2) (Homo sapiens, UniProt P37059); assay: Inhibition of 17β-HSD type 2 in MCF-7 cells stably expressing the isoenzyme (tritium labeled estradiol conversion, HPLC); conditions: MCF-7 cells expressing 17β-HSD type 2, 2 nM tritium labeled estradiol; for % Inhibition HSD2 1 μM / inhibition at 1 µM: 1 μM test compound; for % Inhibition HSD2 10 μM / inhibition at 10 µM: 10 μM test compound; for inhibition at 1 µM / inhibition at 10 µM: MCF7; for inhibition at 1 µM: read-out: % Inhibition HSD2 1 μM; for inhibition at 10 µM: read-out: % Inhibition HSD2 10 μM
T1 construct: expressed in transfected cells; host or cells: MCF-7
T1 sequence (P37059 1-387): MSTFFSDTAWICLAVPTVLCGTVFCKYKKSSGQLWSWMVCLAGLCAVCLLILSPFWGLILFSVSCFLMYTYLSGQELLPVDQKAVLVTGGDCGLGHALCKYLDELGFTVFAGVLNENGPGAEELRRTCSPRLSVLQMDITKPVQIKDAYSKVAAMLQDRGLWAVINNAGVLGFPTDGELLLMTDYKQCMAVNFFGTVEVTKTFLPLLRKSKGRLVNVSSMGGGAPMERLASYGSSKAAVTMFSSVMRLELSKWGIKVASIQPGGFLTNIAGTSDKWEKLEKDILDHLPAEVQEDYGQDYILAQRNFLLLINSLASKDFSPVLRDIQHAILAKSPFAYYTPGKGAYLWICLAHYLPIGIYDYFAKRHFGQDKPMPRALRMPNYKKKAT
Summary of the method: (§1)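 Cells: stable MCF-7 transfectants per isoenzyme. Step one, add compound (two concentrations) plus 2 nM labelled substrate to growth medium. Step two, remove medium at a set time and stop with trichloroacetic acid. Step three, quantify conversion by HPLC with flow scintillation.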

[2] = target: T2, 17β-hydroxysteroid dehydrogenase type 1 (17β-HSD type 1) (Homo sapiens, UniProt P14061); assay: Inhibition of 17β-HSD type 1 in MCF-7 cells stably expressing the isoenzyme (tritium labeled estrone conversion, HPLC); conditions: MCF-7 cells expressing 17β-HSD type 1, 2 nM tritium labeled estrone; for % Inhibition HSD1 1 μM / inhibition at 1 µM: 1 μM test compound; for % Inhibition HSD1 10 μM / inhibition at 10 µM: 10 μM test compound; for inhibition at 1 µM / inhibition at 10 µM: MCF7; for inhibition at 1 µM: read-out: % Inhibition HSD1 1 μM; for inhibition at 10 µM: read-out: % Inhibition HSD1 10 μM
T2 construct: expressed in transfected cells; host or cells: MCF-7
T2 sequence (P14061 1-328): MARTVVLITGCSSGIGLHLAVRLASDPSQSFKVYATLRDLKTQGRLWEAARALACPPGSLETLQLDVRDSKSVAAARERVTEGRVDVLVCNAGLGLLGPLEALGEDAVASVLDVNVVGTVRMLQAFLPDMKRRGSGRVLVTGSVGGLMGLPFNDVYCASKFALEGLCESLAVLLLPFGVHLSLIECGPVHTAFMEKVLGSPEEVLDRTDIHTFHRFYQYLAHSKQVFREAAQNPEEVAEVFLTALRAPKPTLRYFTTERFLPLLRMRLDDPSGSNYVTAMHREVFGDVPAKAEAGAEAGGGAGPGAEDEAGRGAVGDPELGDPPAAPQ
Summary of the method: as §1

[3] = target: T3, 17β-hydroxysteroid dehydrogenase type 3 (17β-HSD type 3) (Homo sapiens, UniProt P37058); assay: Inhibition of 17β-HSD type 3 in MCF-7 cells stably expressing the isoenzyme (tritium labeled androstenedione conversion, HPLC); conditions: MCF-7 cells expressing 17β-HSD type 3, 2 nM tritium labeled androstenedione; for % Inhibition HSD3 1 μM / inhibition at 1 µM: 1 μM test compound; for % Inhibition HSD3 10 μM / inhibition at 10 µM: 10 μM test compound; for inhibition at 1 µM / inhibition at 10 µM: MCF7; for inhibition at 1 µM: read-out: % Inhibition HSD3 1 μM; for inhibition at 10 µM: read-out: % Inhibition HSD3 10 μM
T3 construct: expressed in transfected cells; host or cells: MCF-7
T3 sequence (P37058 1-310): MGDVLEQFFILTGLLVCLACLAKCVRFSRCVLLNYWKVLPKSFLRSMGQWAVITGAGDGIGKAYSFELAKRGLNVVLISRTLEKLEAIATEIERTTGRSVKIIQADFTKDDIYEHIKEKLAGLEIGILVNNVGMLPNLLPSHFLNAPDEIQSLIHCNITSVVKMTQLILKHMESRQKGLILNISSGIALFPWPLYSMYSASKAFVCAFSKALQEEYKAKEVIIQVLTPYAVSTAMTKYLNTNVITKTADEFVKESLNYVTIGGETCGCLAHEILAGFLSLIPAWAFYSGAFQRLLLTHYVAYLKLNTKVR
Summary of the method: as §1

Structure (SMILES)	% Inhibition HSD2 1 μM [1] [%]	% Inhibition HSD2 10 μM [1] [%]	% Inhibition HSD1 1 μM [2] [%]	% Inhibition HSD1 10 μM [2] [%]	% Inhibition HSD3 1 μM [3] [%]	% Inhibition HSD3 10 μM [3] [%]	inhibition at 1 µM [1] [%]	inhibition at 10 µM [1] [%]	inhibition at 1 µM [2] [%]	inhibition at 10 µM [2] [%]	inhibition at 1 µM [3] [%]	inhibition at 10 µM [3] [%]
COCc1nc2sc3c(O)cccc3c2c(=O)n1CCc1ccccc1 [No. 629]	39.1	71.7	22.4	33.1	19.3	35.9	–	–	–	–	–	–
O=c1c2c(nc(-c3ccc(F)cc3F)n1CCc1ccccc1)sc1c(O)cccc12 [No. 630]	24.7	19.9	25.1	21.0	10.9	35.4	–	–	–	–	–	–
CCCCn1c(CCC2CCCC2)nc2sc3c(O)cccc3c2c1=O [No. 634]	16.8	20.1	16.8	17.9	13.3	56.4	–	–	–	–	–	–
O=c1c2c(nc(CCc3ccccc3)n1CCc1cccs1)sc1c(O)cccc12 [No. 639]	18.2	24.0	22.6	39.3	33.6	76.2	–	–	–	–	–	–
O=c1c2c(nc(Cc3ccccc3)n1CCc1cccs1)sc1c(O)cccc12 [No. 641]	10.5	36.9	20.4	35.0	13.2	55.7	–	–	–	–	–	–
O=c1c2c(nc(CCC3CCCC3)n1CCc1cccs1)sc1c(O)cccc12 [No. 643]	20.1	43.3	15.7	34.2	23.4	46.1	–	–	–	–	–	–
COCc1nc2sc3c(O)cccc3c2c(=O)n1CCc1cccs1 [No. 645]	48.8	75.5	17.2	29.1	21.7	22.7	–	–	–	–	–	–
CC(C)=Cc1nc2sc3c(O)cccc3c2c(=O)n1CCc1cccs1 [No. 648]	16.0	40.2	18.0	24.6	17.7	70.1	–	–	–	–	–	–
COc1cc(-c2nc3sc4c(c3c(=O)n2Cc2ccccc2)C(C)CCC4)cc(OC)c1OC (stereo not drawn) [No. 683, 3-Benzyl-5-methyl-2-(3,4,5-trimethoxyphenyl)-5,6,7,8-tetrahydro-3H-benzo[4,5]thieno[2,3-d]pyrimidin-4-one]	–	–	–	–	–	–	9.2	18.8	16.8	32.9	8.1	37.7
COc1cc(-c2nc3sc4c(c3c(=O)n2Cc2ccccc2)C(C)CCC4=O)cc(OC)c1OC (stereo not drawn) [No. 684, 3-Benzyl-5-methyl-2-(3,4,5-trimethoxyphenyl)-6,7-dihydro-3H,5H-benzo[4,5]thieno[2,3-d]pyrimidin-4,8-dione]	–	–	–	–	–	–	9.2	11	24.6	63.3	24.7	10.5
COc1cc(-c2nc3sc4c(c3c(=O)n2Cc2ccccc2)C(C)CC(Br)C4=O)c(Br)c(OC)c1OC (stereo not drawn) [No. 685, 3-Benzyl-7-bromo-2-(2-bromo-3,4,5-trimethoxyphenyl)-5-methyl-6,7-dihydro-3H,5H-benzo[4,5]thieno[2,3-d]pyrimidine-4,8-dione]	–	–	–	–	–	–	22.7	19.9	16.6	31.2	5.1	13.8
COc1cc(-c2nc3sc4c(O)ccc(C)c4c3c(=O)n2Cc2ccccc2)c(Br)c(OC)c1OC [No. 686, 3-Benzyl-2-(2-bromo-3,4,5-trimethoxyphenyl)-8-hydroxy-5-methyl-3H-benzo[4,5]thieno[2,3-d]pyrimidin-4-one]	–	–	–	–	–	–	2.1	4.3	2.1	15	-1.1	7.1
COc1cc(-c2nc3sc4c(c3c(=O)n2Cc2ccccc2)CC(C)CC4)cc(OC)c1OC (stereo not drawn) [No. 687, 3-Benzyl-6-methyl-2-(3,4,5-trimethoxyphenyl)-5,6,7,8-tetrahydro-3H-benzo[4,5]thieno[2,3-d]pyrimidin-4-one]	–	–	–	–	–	–	8.3	5.6	-3.3	5.5	1.7	7.3

Other lines, results leading:

% Inhibition HSD2 1 μM [1] [%]	% Inhibition HSD2 10 μM [1] [%]	% Inhibition HSD1 1 μM [2] [%]	% Inhibition HSD1 10 μM [2] [%]	% Inhibition HSD3 1 μM [3] [%]	% Inhibition HSD3 10 μM [3] [%]	inhibition at 1 µM [1] [%]	inhibition at 10 µM [1] [%]	inhibition at 1 µM [2] [%]	inhibition at 10 µM [2] [%]	inhibition at 1 µM [3] [%]	inhibition at 10 µM [3] [%]	Structure (SMILES)
–	–	–	–	–	–	33.2	64.6	30.6	60.9	62.3	91.7	CCCCn1c(-c2ccccc2OC)nc2sc3c(O)cccc3c2c1=O [No. 633, 3-Butyl-8-hydroxy-2-(2-methoxy-phenyl)-3H-benzo[4,5]thieno[2,3-d]pyrimidin-4-one]
15.4	50.8	4.9	18.9	11.6	62.5	–	–	–	–	–	–	CCCCC(CC)c1nc2sc3c(O)cccc3c2c(=O)n1CCCC (stereo not drawn) [No. 635]
27.6	26.4	29.8	28.4	13.9	19.8	–	–	–	–	–	–	CCCCC(CC)c1nc2sc3c(O)cccc3c2c(=O)n1CCc1cccs1 (stereo not drawn) [No. 644]
16.3	33.9	14.4	35.4	22.9	76.1	–	–	–	–	–	–	O=c1c2c(nc(CCc3ccccc3)n1Cc1ccccc1)sc1c(O)cccc12 [No. 659]
19.8	48.9	21.7	37.1	16.6	19.9	–	–	–	–	–	–	O=c1c2c(nc(Cc3ccccc3)n1Cc1ccccc1)sc1c(O)cccc12 [No. 660]
37.4	57.6	26.3	24.6	12.4	45.6	–	–	–	–	–	–	CCCCC(CC)c1nc2sc3c(O)cccc3c2c(=O)n1Cc1ccccc1 (stereo not drawn) [No. 663]
20.9	63.7	20.1	51.9	16.9	37.0	–	–	–	–	–	–	CC(C)=Cc1nc2sc3c(O)cccc3c2c(=O)n1Cc1ccccc1 [No. 667]
